The record followed here is patent US20240174680A1, “CDK2 INHIBITORS AND METHODS OF USING THE SAME” (Cedilla Therapeutics, Inc., priority 2021, published 2024).

For this experiment, the target named is CDK2/Cyclin E1 (Homo sapiens, UniProt P24941). Description: CDK2/Cyclin E1 Caliper LabChip EZ Reader mobility shift assay. Format: biochemical. Also on record: purchased Eurofins 14-475. Conditions: read-out: Caliper Assay (CDK2/CCNE1): IC50. In short, it runs like this: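 Mobility-shift kinase assay: compound titrations preincubated 30 min with enzyme and ATP, reaction started with 5-FAM-QSPKKG-CONH2 peptide. Final 2.5 nM CDK2/Cyclin E1, 100 μM ATP, 1.5 μM peptide, HEPES pH 7.5; stopped with EDTA after 100 min. IC50 from four-parameter fit of normalized conversion ratio.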

pIC50: −log10 of the molar value.

For `CNC(=O)[C@@H](NC(=O)[C@@H]1CN(C(=O)c2scnc2C2CC2)CC12CN(C(=O)[C@H]1CC1(C)C)C2)[C@@H](C)OCC1CCCCC1` [I-185A], the pIC50 is < 5.00. In the case of `CNC(=O)[C@@H](NC(=O)[C@H]1CN(C(=O)c2scnc2C2CC2)CC12CN(C(=O)[C@H]1CC1(C)C)C2)[C@@H](C)OCC1CCCCC1` [I-185B] it was < 5.00; in that of `CNC(=O)[C@@H](NC(=O)[C@@H]1CN(C(=O)c2cncs2)CC12CN(C(=O)C(C)(C)C)C2)[C@@H](C)OCC1CCCCC1` [I-186A], 7.00 to 8.00. In the case of `CNC(=O)[C@@H](NC(=O)[C@H]1CN(C(=O)c2cncs2)CC12CN(C(=O)C(C)(C)C)C2)[C@@H](C)OCC1CCCCC1` [I-186B] it was < 5.00; in that of `COC(=O)[C@@H](CO)NC(=O)[C@@H]1CN(C(=O)c2cnn(Cc3ccccc3)c2)CC12CN(C(=O)[C@H]1CC1(C)C)C2` [I-187A], < 5.00; in that of `COC(=O)[C@@H](CO)NC(=O)[C@H]1CN(C(=O)c2cnn(Cc3ccccc3)c2)CC12CN(C(=O)[C@H]1CC1(C)C)C2` [I-187B], < 5.00.

Regarding `C[C@@H](OCC1CCC(F)(F)CC1)[C@H](NC(=O)[C@@H]1CN(C(=O)c2cn[nH]c2)CC12CN(C(=O)C1(C(F)(F)F)CC1)C2)C(=O)N1CCC(F)(F)CC1` [I-188A], the pIC50 is 7.00 to 8.00. In the case of `C[C@@H](OCC1CCC(F)(F)CC1)[C@H](NC(=O)[C@H]1CN(C(=O)c2cn[nH]c2)CC12CN(C(=O)C1(C(F)(F)F)CC1)C2)C(=O)N1CCC(F)(F)CC1` [I-188B] it was 5.00 to 6.00; in that of `CNC(=O)[C@@H](NC(=O)[C@@H]1CN(C(=O)c2cnc(Cl)s2)CC12CN(C(=O)[C@H]1CC1(C)C)C2)[C@@H](C)OCC1CCCCC1` [I-189A], 6.00 to 7.00; in that of `CNC(=O)[C@@H](NC(=O)[C@H]1CN(C(=O)c2cnc(Cl)s2)CC12CN(C(=O)[C@H]1CC1(C)C)C2)[C@@H](C)OCC1CCCCC1` [I-189B], < 5.00.

Turning to `CC1(C)C[C@@H]1C(=O)N1CC2(CN(C(=O)c3cnn(Cc4ccccc4)c3)C[C@H]2C(=O)NCc2nnc[nH]2)C1` [I-191A], the pIC50 was < 5.00. In the case of `CC1(C)C[C@@H]1C(=O)N1CC2(CN(C(=O)c3cnn(Cc4ccccc4)c3)C[C@@H]2C(=O)NCc2nnc[nH]2)C1` [I-191B] it was < 5.00. For `C[C@@H](OCC1CCCCC1)[C@H](NC(=O)C1CN(C(=O)c2cnn(Cc3ccccc3)c2)CC12CN(C(=O)[C@H]1CC1(C)C)C2)C(=O)N1CCCCC1` (stereo partly shown) [I-194 mixture] the value was ≥ 8.00; for `COC[C@@H]1CCCN(C(=O)[C@@H](NC(=O)C2CN(C(=O)c3cncs3)CC23CN(C(=O)[C@H]2CC2(C)C)C3)[C@@H](C)OCC2CCCCC2)C1` (stereo partly shown) [I-195], ≥ 8.00; for `COC[C@H]1CCCN(C(=O)[C@@H](NC(=O)C2CN(C(=O)c3cncs3)CC23CN(C(=O)[C@H]2CC2(C)C)C3)[C@@H](C)OCC2CCCCC2)C1` (stereo partly shown) [I-196 mixture], ≥ 8.00. Take `COC[C@H]1CCCN(C(=O)[C@@H](NC(=O)[C@H]2CN(C(=O)c3cncs3)CC23CN(C(=O)[C@H]2CC2(C)C)C3)[C@@H](C)OCC2CCCCC2)C1` [I-196B]: the pIC50 was ≥ 8.00. Turning to `C[C@@H](OCC1CCCCC1)[C@H](NC(=O)C1CN(C(=O)c2cncs2)CC12CN(C(=O)[C@H]1CC1(C)C)C2)C(=O)N1CCC[C@@H](CO)C1` (stereo partly shown) [I-197], the pIC50 is ≥ 8.00.

As to `C[C@@H](OCC1CCCCC1)[C@H](NC(=O)[C@@H]1CN(C(=O)c2cncs2)CC12CN(C(=O)[C@H]1CC1(C)C)C2)C(=O)N1CCOCC1` [I-198], the pIC50 is ≥ 8.00. For `CNC(=O)[C@@H](NC(=O)[C@@H]1CN(C(=O)c2cnn(Cc3ccccc3)c2)CC12CN(C(=O)[C@H]1CC1(C)C)C2)C(C)(C)S(=O)(=O)Cc1ccccc1` [I-199, (S)-6-(1-benzyl-1H-pyrazole-4-carbonyl)-N—((R)-3-(benzylsulfonyl)-3-methyl-1-(methylamino)-1-oxobutan-2-yl)-2-((S)-2,2-dimethylcyclopropane-1-carbonyl)-2,6-diazaspiro[3.4]octane-8-carboxamide] the value was 6.00 to 7.00.
